The record followed here is patent US20070083333A1, “Modeling of systemic inflammatory response to infection” (priority 2003, published 2007).

The test system of assay [1] is irradiated (490 rads) C3H/HeN mice with infected subcutaneous pouch. Kind of assay: Immunocompromised mouse model of contained infection: ceftriaxone treatment, spleen CFU at death and survival. It counts as in vivo. The conditions noted are these: Ceftriaxone 0.3 mg/mouse daily. From the text: In order to test therapies intended at controlling systemic inflammatory response rather than the infection, it is desirable to control the infection to avoid problems that can derive from a high bacterial load. To this end we controlled the infection by using antibiotics. In this experiment, a subcutaneous pouch was induced in C3H/HeN animals. […] At Day 6 after induction of the pouches, mice were infected with 4.5×10^6 CFU/mouse. As animals became sick (as detected by a ruffled fur), each animal was assigned to one of two different groups, i.e. a group to be treated with 0.3 mg/mouse of ceftriaxone and a group to stay untreated. […] Once an animal was assigned to the treated group, it received a daily injection of antibiotic until the animal succumbed to death. […] At death, spleens were removed from the animals, homogenized in PBS, and the CFU determined.
The bacterial counts in the spleens of treated animals are about 3 logs of magnitude lower than in the untreated animals. The conditions employed should therefore be useful for testing therapies to prevent the progression from sepsis to septic shock in the absence of overwhelming bacterial infection.

Assay [2] concerns irradiated C3H/HeN mice infected with E. coli strain Bort. Kind of assay: VEGF receptor antagonists (Compounds I and II): survival, bacterial counts, time of euthanasia. The following applies: for Bacterial counts: blood bacterial count of individual animal bled at 40 hours after infection, 100 mg/Kg injected 16 hours after infection, FD given where no count; for Bacterial counts / Time of Death: 100 mg/kg; for Status: individual animal survival status code (1 or 0, not defined; 0 only at 168); for Time of Death: individual animal, time of death/euthanasia (hours after infection), 100 mg/Kg, ceftriaxone 50 ug/mouse at 40 hours. The assay is classed as in vivo, mouse. On the procedure: (§1) Mice were pouched six days and irradiated five days before infection. Eight- to 12-week-old C3H/HeN mice were anesthetized with isofluorane and wiped with alcohol in the area caudal to their ears. Pouches were created at this site by subcutaneous injection of 2-3 ml of air, followed by the subcutaneous injection of 0.2 ml of a 0.5% solution of croton oil in olive oil. Twenty-four hours later, mice were irradiated using a gamma irradiator. Five days after irradiation, animals were infected with E. coli strain Bort by direct injection of the bacterial suspension into the pouches. After infection, animals were treated as described for each individual experiment. Animals were checked daily for signs of pain and distress, including diarrhea, lethargy, ruffled fur, lack of appetite, and poor body condition. Animals were euthanized when they became very lethargic and unable to move when touched. It was previously determined that when mice reach such conditions they will die within 6-8 hours.
Using the procedure described above, 76 mice were pouched, irradiated (495 rads) and infected (0.2 ml of 0.1 OD 600).
(II) (see WO 98/13354 and WO 00/132651). At 40 hours after infection, animals were bled and injected with the same solutions to which ceftriaxone was added to yield a solution containing 50 ug/mouse. Animals were injected with the solutions (no ceftriaxone) for 2 more days. Blood was used for BC and plasma. Two aliquots of 20 ul and an extra aliquot were prepared and stored at −80.

Assay [3] has the same test system. Kind of assay: Ethyl pyruvate plus ceftriaxone, survival in immunocompromised infected mouse model. The assay is classed as in vivo. The following applies: for Bacterial counts / Status / Status.dead / Time death: one animal per row, listed as EP; for Status: 1 = dead, 0 = alive. On the procedure: as §1, with “touched.” for “touched. It was previously determined that when mice reach such conditions they will die within 6-8 hours.”
Mice were pouched and irradiadiated as described above. The mice were assigned to four different groups: (1) ten mice were untreated (control mice); (2) nineteen mice were treated with 0.1 mg/mouse of ceftriaxone (CEF) once every 24 hours […] (saline control mice); (3) twenty mice were treated with 0.1 mg/mouse ceftriaxone and 35 mg/ml ethyl pyruvate once every 24 hours for four days (EP mice); and (4) ten mice were treated as for group (3) and received an additional injection of 35 mg/ml of EP at 30 and 54 hour timepoints (EP 2x mice).

Where “and” joins values, the source holds several entries; their conditions need not be identical. Equal values may be shown once.

`CO/N=C(\C(=O)N[C@@H]1C(=O)N2C(C(=O)O)=C(CSc3nc(=O)c(=O)[nH]n3C)CS[C@H]12)c1csc(N)n1` [Ceftriaxone, ceftriaxone]: the “CFU/spleen, Average” value in assay [1] (average of treated animals) turned out to be 7.01E+05 CFU/spleen. The CFU/spleen in assay [1] (spleens removed at death, single animals) was 2.60E+04 CFU/spleen and 3.00E+03 CFU/spleen and 8.00E+03 CFU/spleen and 8.00E+05 CFU/spleen (2×) and 1.80E+04 CFU/spleen and 6.00E+02 CFU/spleen and 1.20E+04 CFU/spleen and 2.00E+03 CFU/spleen and 4.00E+04 CFU/spleen and 6.00E+06 CFU/spleen.

Take `COc1cc2c(Nc3ccc(Br)cc3F)ncnc2cc1OCC1CCN(C)CC1` [Compound II]: in assay [2], the Bacterial counts was 1.0E+09 and 1.0E+07 and 9.0E+06 and 3.0E+06 and 2.0E+06 (3×) and 5.0E+05 and 3.0E+05 (2×) and 5.0E+04 and 3.0E+04 and 1.6E+04 and 2.0E+03 and 1.0E+02 (2×) and <100 (9×); the Status is 1 (23×) and 0 (4×); the “Time of Death” value was 40 (2×) and 46 (4×) and 48 (7×) and 64 (4×) and 160 (3×) and 112 (3×) and 168 (4×).

Consider `CC(C)(N)c1ccc(-c2nc(Nc3ccc(CCN4CCOCC4)cc3)ncc2C#N)cc1` [Compound I], for which, in assay [2], the Bacterial counts was 1.3E+07 and 4.0E+06 and 3.0E+06 and 2.0E+06 and 1.0E+06 and 3.0E+05 (3×) and 2.0E+05 (2×) and 3.0E+04 and 1.7E+03 and 1.0E+03 and 1.0E+02 (5×) and <100 (7×); the Status is 1 (27×) and 0; the “Time of Death” value was 40 (3×) and 46 (5×) and 48 (4×) and 64 and 88 and 94 and 112 (8×) and 160 and 96 (3×) and 168.

For the compound `CCOC(=O)C(C)=O` [ethyl pyruvate], the “survival relative to nontreated or CEF-treated controls” value in assay [3] (35 mg/ml ethyl pyruvate with 0.1 mg/mouse ceftriaxone, every 24 hours for four days (EP) or with extra doses at 30 and 54 h (EP 2x)) is “significant survival advantage”. Further, in assay [3] (Group 3 (EP mice): 0.1 mg/mouse ceftriaxone and 35 mg/ml ethyl pyruvate once every 24 hours for four days), the “Bacterial counts” value was 1.0E+04 and 3.0E+04 and 1.2E+05 and 2.0E+05 (3×) and 3.0E+05 (2×) and 1.3E+04 and 2.5E+04 and 3.5E+04 and 6.5E+04 and 7.6E+04 and 8.0E+04 and 1.2E+04 and 2.0E+03 and 1.6E+03 (2×) and 1.6E+04 and 4.0E+04. In assay [3] (Group 3 (EP mice)), the Status was 1 (19×) and 0; the Status.dead entry is “DEAD (19×) and ALIVE”; the Time death was 48 (6×) and 54 (8×) and 56 and 78 and 102 and 168 and 174 (2×). Moreover, the “Bacterial counts” value in assay [3] (Group 4 (EP 2x mice): as group 3 plus additional 35 mg/ml EP at 30 and 54 hour timepoints) was 2.0E+05 and 5.0E+04 (2×) and 3.0E+04 (2×) and 1.0E+04 and 1.7E+03 and 0.0E+00 and 1.0E+03 and 2.4E+03. Further, in assay [3] (Group 4 (EP 2x mice)), the Status was 1 (7×) and 0 (3×); the Status.dead result was “DEAD (7×) and ALIVE (3×)”; the Time death is 48 and 54 and 62 and 72 and 96 and 168 (2×) and 174 (3×).
